Reference: patent US9439428B2, “Herbicidal compounds” (SYNGENTA LIMITED, priority 2011, dated 2016)

What was measured:
Type in all cases: in vivo
Conditions in all cases: 1000 g/h, evaluated after 13 days, five point scale
[1] = system: Echinochloa crus-galli (ECHCG); assay: Post-emergence herbicidal glasshouse test
Procedure: (§1) Seeds of a variety of test species are sown in standard soil in pots (Alopecurus myosuroides (ALOMY), Setaria faberi (SETFA), Echinochloa crus-galli (ECHCG), Abuthilon theophrasti (ABUTH) and Amaranthus retoflexus (AMARE)). After cultivation for one day (pre-emergence) or after 8 days cultivation (post-emergence) under controlled conditions in a glasshouse (at 24/16° C., day/night; 14 hours light; 65% humidity), the plants are sprayed with an aqueous spray solution derived from the formulation of the technical active ingredient in acetone/water (50:50) solution containing 0.5% Tween 20 (polyoxyethelyene sorbitan monolaurate, CAS RN 9005-64-5). Compounds ae applied at 1000 g/h. The test plants are then grown in a glasshouse under controlled conditions in a glasshouse (at 24/16° C., day/night; 14 hours light; 65% humidity) and watered twice daily. After 13 days for pre and post-emergence, the test is evaluated for the percentage herbicidal damage caused to the plant. The biological activities are shown in the following table on a five point scale (5=80-100% damage; 4=60-79% damage; 3=40-59% damage; 2=20-39% damage; 1=0-19% damage).

[2] = system: Abuthilon theophrasti (ABUTH); assay: Post-emergence herbicidal glasshouse test
Procedure: as §1

[3] = system: Setaria faberi (SETFA); assay: Post-emergence herbicidal glasshouse test
Procedure: as §1

[4] = system: Alopecurus myosuroides (ALOMY); assay: Post-emergence herbicidal glasshouse test
Procedure: as §1

[5] = system: Amaranthus retoflexus (AMARE); assay: Post-emergence herbicidal glasshouse test
Procedure: as §1

[6] = system: Echinochloa crus-galli (ECHCG); assay: Pre-emergence herbicidal glasshouse test
Procedure: as §1

[7] = system: Abuthilon theophrasti (ABUTH); assay: Pre-emergence herbicidal glasshouse test
Procedure: as §1

[8] = system: Setaria faberi (SETFA); assay: Pre-emergence herbicidal glasshouse test
Procedure: as §1

[9] = system: Alopecurus myosuroides (ALOMY); assay: Pre-emergence herbicidal glasshouse test
Procedure: as §1

[10] = system: Amaranthus retoflexus (AMARE); assay: Pre-emergence herbicidal glasshouse test
Procedure: as §1

O=C1CCCC(=O)C1C(=O)c1ccnn(-c2ccccc2)c1=O [Compound 1.1, 2-(3-Oxo-2-phenyl-2,3-dihydropyridazine-4-carbonyl)-cyclohexane-1,3-dione]
5 (5=80-100% damage): percentage herbicidal damage, ECHCG, POST Application [1] | percentage herbicidal damage, ABUTH, POST Application [2] | percentage herbicidal damage, SETFA, POST Application [3] | percentage herbicidal damage, ALOMY, POST Application [4] | percentage herbicidal damage, AMARE, POST Application [5] | percentage herbicidal damage, ECHCG, PRE Application [6] | percentage herbicidal damage, ABUTH, PRE Application [7] | percentage herbicidal damage, SETFA, PRE Application [8] | percentage herbicidal damage, ALOMY, PRE Application [9] | percentage herbicidal damage, AMARE, PRE Application [10]

COc1ccc(-n2nc(C)cc(C(=O)C3C(=O)CC(C)CC3=O)c2=O)cc1 (stereo not drawn) [Compound 1.5]
5 (5=80-100% damage): percentage herbicidal damage, ECHCG, POST Application [1] | percentage herbicidal damage, ABUTH, POST Application [2] | percentage herbicidal damage, SETFA, POST Application [3] | percentage herbicidal damage, ALOMY, POST Application [4] | percentage herbicidal damage, AMARE, POST Application [5] | percentage herbicidal damage, ECHCG, PRE Application [6] | percentage herbicidal damage, ABUTH, PRE Application [7] | percentage herbicidal damage, SETFA, PRE Application [8] | percentage herbicidal damage, ALOMY, PRE Application [9] | percentage herbicidal damage, AMARE, PRE Application [10]

Cc1cc(C(=O)C2C(=O)C3CCC(C3)C2=O)c(=O)n(-c2ccccc2)n1 (stereo not drawn) [Compound 1.7]
5 (5=80-100% damage): percentage herbicidal damage, ECHCG, POST Application [1] | percentage herbicidal damage, ABUTH, POST Application [2] | percentage herbicidal damage, SETFA, POST Application [3] | percentage herbicidal damage, ALOMY, POST Application [4] | percentage herbicidal damage, AMARE, POST Application [5] | percentage herbicidal damage, ECHCG, PRE Application [6] | percentage herbicidal damage, ABUTH, PRE Application [7] | percentage herbicidal damage, SETFA, PRE Application [8] | percentage herbicidal damage, ALOMY, PRE Application [9] | percentage herbicidal damage, AMARE, PRE Application [10]

COc1ccc(-n2nc(C)cc(C(=O)C3C(=O)C4CCC(C4)C3=O)c2=O)cc1 (stereo not drawn) [Compound 1.4]
5 (5=80-100% damage): percentage herbicidal damage, ECHCG, POST Application [1] | percentage herbicidal damage, ABUTH, POST Application [2] | percentage herbicidal damage, SETFA, POST Application [3] | percentage herbicidal damage, ALOMY, POST Application [4] | percentage herbicidal damage, AMARE, POST Application [5] | percentage herbicidal damage, ECHCG, PRE Application [6] | percentage herbicidal damage, ABUTH, PRE Application [7] | percentage herbicidal damage, SETFA, PRE Application [8] | percentage herbicidal damage, ALOMY, PRE Application [9] | percentage herbicidal damage, AMARE, PRE Application [10]

Cc1cc(C(=O)C2C(=O)CCCC2=O)c(=O)n(-c2ccccc2)n1 [Compound 1.2, 2-(6-Methyl-3-oxo-2-phenyl-2,3-dihydropyridazine-4-carbonyl)-cyclohexane-1,3-dione]
5 (5=80-100% damage): percentage herbicidal damage, ECHCG, POST Application [1] | percentage herbicidal damage, ABUTH, POST Application [2] | percentage herbicidal damage, SETFA, POST Application [3] | percentage herbicidal damage, ALOMY, POST Application [4] | percentage herbicidal damage, AMARE, POST Application [5] | percentage herbicidal damage, ECHCG, PRE Application [6] | percentage herbicidal damage, ABUTH, PRE Application [7] | percentage herbicidal damage, SETFA, PRE Application [8] | percentage herbicidal damage, ALOMY, PRE Application [9] | percentage herbicidal damage, AMARE, PRE Application [10]

Cc1cc(C(=O)C2C(=O)CC(C)CC2=O)c(=O)n(-c2ccccc2)n1 (stereo not drawn) [Compound 1.9]
5 (5=80-100% damage): percentage herbicidal damage, ECHCG, POST Application [1] | percentage herbicidal damage, ABUTH, POST Application [2] | percentage herbicidal damage, SETFA, POST Application [3] | percentage herbicidal damage, ALOMY, POST Application [4] | percentage herbicidal damage, AMARE, POST Application [5] | percentage herbicidal damage, ECHCG, PRE Application [6] | percentage herbicidal damage, ABUTH, PRE Application [7] | percentage herbicidal damage, SETFA, PRE Application [8] | percentage herbicidal damage, ALOMY, PRE Application [9] | percentage herbicidal damage, AMARE, PRE Application [10]

Cc1cc(C(=O)C2C(=O)CC(C)CC2=O)c(=O)n(-c2ccccc2C)n1 (stereo not drawn) [Compound 1.6]
5 (5=80-100% damage): percentage herbicidal damage, ECHCG, POST Application [1] | percentage herbicidal damage, ABUTH, POST Application [2] | percentage herbicidal damage, SETFA, POST Application [3] | percentage herbicidal damage, ALOMY, POST Application [4] | percentage herbicidal damage, AMARE, POST Application [5] | percentage herbicidal damage, ECHCG, PRE Application [6] | percentage herbicidal damage, ABUTH, PRE Application [7] | percentage herbicidal damage, SETFA, PRE Application [8] | percentage herbicidal damage, ALOMY, PRE Application [9] | percentage herbicidal damage, AMARE, PRE Application [10]

COc1ccc(-n2nc(C)cc(C(=O)C3C(=O)CCCC3=O)c2=O)cc1 [Compound 1.3]
5 (5=80-100% damage): percentage herbicidal damage, ECHCG, POST Application [1] | percentage herbicidal damage, ABUTH, POST Application [2] | percentage herbicidal damage, SETFA, POST Application [3] | percentage herbicidal damage, ALOMY, POST Application [4] | percentage herbicidal damage, AMARE, POST Application [5] | percentage herbicidal damage, ECHCG, PRE Application [6] | percentage herbicidal damage, ABUTH, PRE Application [7] | percentage herbicidal damage, SETFA, PRE Application [8] | percentage herbicidal damage, ALOMY, PRE Application [9] | percentage herbicidal damage, AMARE, PRE Application [10]

Cc1cc(C(=O)C2C(=O)C(C)(C)C(=O)C(C)(C)C2=O)c(=O)n(-c2ccccc2)n1 [Compound 1.8]
5 (5=80-100% damage): percentage herbicidal damage, ECHCG, POST Application [1] | percentage herbicidal damage, ABUTH, POST Application [2] | percentage herbicidal damage, SETFA, POST Application [3] | percentage herbicidal damage, ALOMY, POST Application [4] | percentage herbicidal damage, AMARE, POST Application [5] | percentage herbicidal damage, ECHCG, PRE Application [6] | percentage herbicidal damage, ABUTH, PRE Application [7] | percentage herbicidal damage, SETFA, PRE Application [8] | percentage herbicidal damage, ALOMY, PRE Application [9] | percentage herbicidal damage, AMARE, PRE Application [10]
